This is an account of results in ChEMBL document CHEMBL1132329, “Synthesis and histone deacetylase inhibitory activity of new benzamide derivatives” (J Med Chem, 1999).

This test concerns the target Histone deacetylase. As to the kind of experiment: Inhibitory activity against partially purified histone deacetylase of human leukemia K562 cells. The format is cell-based.
Regarding `Cc1ccc(NC(=O)c2ccc(CNC(=O)OCc3cccnc3)cc2)c(N)c1`, the half-inhibitory concentration (IC50) was over 100 µM.
`Nc1cccc(NC(=O)c2ccc(CNC(=O)OCc3cccnc3)cc2)c1` returned an IC50 of over 100 µM.
`CC(=O)Nc1ccccc1NC(=O)c1ccc(CNC(=O)OCc2cccnc2)cc1`: the IC50 is over 100 µM.
In turn, `CCCC(=O)[O-].[Na+]` [SODIUM BUTYRATE] registered an IC50 of 140 µM.
As for `O=C(NCc1ccc(C(=O)Nc2ccccc2O)cc1)OCc1cccnc1`, the figure is 2.2 µM; as for `Cc1ccc(N)c(NC(=O)c2ccc(CNC(=O)OCc3cccnc3)cc2)c1`, 2.8 µM.
As for `Nc1ccc(F)cc1NC(=O)c1ccc(CNC(=O)OCc2cccnc2)cc1`, the figure is 6 µM; as for `Nc1ccc(NC(=O)c2ccc(CNC(=O)OCc3cccnc3)cc2)cc1`, over 100 µM; as for `COc1ccc(NC(=O)c2ccc(CNC(=O)OCc3cccnc3)cc2)c(N)c1`, 44 µM.
Molecule `COc1ccc(N)c(NC(=O)c2ccc(CNC(=O)OCc3cccnc3)cc2)c1` came in with an IC50 of 4.6 µM.
Turning to `Nc1cc(Cl)ccc1NC(=O)c1ccc(CNC(=O)OCc2cccnc2)cc1`, the half-inhibitory concentration (IC50) came to 40 µM.
As for `Cc1cccc(NC(=O)c2ccc(CNC(=O)OCc3cccnc3)cc2)c1N`, the figure is over 100 µM; as for `Nc1ccc(Cl)cc1NC(=O)c1ccc(CNC(=O)OCc2cccnc2)cc1`, 7.7 µM; as for `O=C(NCc1ccc(C(=O)Nc2ccccc2)cc1)OCc1cccnc1`, over 100 µM.
